Experimental findings from patent publication US8273738B2, “Imidazole derivatives” (priority 2006, dated 2012) are described below.

Assay [1] has as its system rats with chronic constriction nerve injury. As to the kind of experiment: Analgesic effect in rats with chronic constriction nerve injury (von Frey filament). The assay is classed as in vivo, rat. The following applies: oral, dose of 50 mg/kg or less, one hour after administration, von Frey filaments. The text has this:
Rats with chronic constriction nerve injury were produced by partially modifying the method of Mosconi and Kruger et al. (Pain, vol. 64, pp. 37-57 (1996))
Male Crl:CD(SD) rats were used for the experiments. Under pentobarbital anesthesia, the sciatic nerve of the left hind limb of the rat was exfoliated, and the exfoliated region was wrapped with a polyethylene tube (trade name: Intramedic, size: PE-60, manufactured by Becton Dickinson and Company) of 2 mm in length. On days 14 to 21 after the surgery, the rats were placed in an acrylic connected cage with a wire mesh floor (900 mm (length)×210 mm (depth)×140 mm (height)) consisting of 4 cages connected in a row and allowed to acclimate to the environment for at least 20 minutes, and then, the pain was evaluated.
The von Frey filament (trade name: touch test sensory evaluator, Model number: model 58011, manufactured by Muromachi Kikai) was used to evaluate pain, and the results were calculated as a pain threshold. That is, by using a von Frey filament of different stimulus intensity, stimulation was given to the plantar surface of the injured side of rats with chronic constriction nerve injury, and the stimulus intensity to cause paw withdrawal response was obtained. Then, the 50% pain threshold (Paw withdrawal threshold) (g) was calculated by the up down method of Dixon [Annual Review of Pharmacology and Toxicology, vol. 20, pp. 441-462 (1980)].
In the evaluation of the test compound, rats with 50% pain threshold of less than 4 g were used, and the test compound was dissolved in a 0.5% aqueous methyl cellulose solution and orally administered at a dose of 5 mL/kg. One hour after the administration, the pain threshold was measured using von Frey filaments.

For another assay, the target named is T1, CB2 receptor (Rattus norvegicus, UniProt Q9QZN9).
T1 construct: from tissue; host or cells: rat spleen membrane specimen
T1 sequence (Q9QZN9 1-360): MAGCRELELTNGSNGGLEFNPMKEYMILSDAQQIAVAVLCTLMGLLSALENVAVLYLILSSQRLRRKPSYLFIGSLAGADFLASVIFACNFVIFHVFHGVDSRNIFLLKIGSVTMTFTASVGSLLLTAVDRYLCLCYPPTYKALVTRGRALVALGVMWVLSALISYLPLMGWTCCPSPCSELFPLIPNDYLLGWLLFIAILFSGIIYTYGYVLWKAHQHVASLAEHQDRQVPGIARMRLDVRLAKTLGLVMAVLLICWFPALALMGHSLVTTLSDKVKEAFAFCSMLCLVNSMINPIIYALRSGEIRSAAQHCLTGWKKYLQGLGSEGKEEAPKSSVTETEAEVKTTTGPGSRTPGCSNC
As to the kind of experiment: Cannabinoid CB2 receptor-binding activity ([3H]CP55940 binding experiment), rat spleen membrane specimen. How it is done:
A test was carried out according to the method of Hillard et al. [The Journal of Pharmacology and Experimental Therapeutics, vol. 289, p. 1427 (1999)]. A rat forebrain membrane specimen and a rat spleen membrane specimen were prepared and used in a binding experiment for a CB1 receptor and a binding experiment for a CB2 receptor, respectively. The membrane specimen (forebrain: final concentration of 0.5 mg of protein/mL, spleen: final concentration of 2 mg of protein/mL) was incubated together with a test compound and [^3H]CP55940 (manufactured by PerkinElmer) ((−)-cis-3-[2-hydroxy-[3,5-^3H]-4-(1,1-dimethylheptyl)phenyl]-trans-4-(3-hydroxypropyl)cyclohexanol)) (final concentration: 0.5 nmol/L) in an assay buffer (50 mmol/L Tris-HCl buffer (pH 7.4), 1 mmol/L EDTA and 3 mmol/L MgCl2) containing 0.1% bovine serum albumin at 25° C. for 1 hour, and the resulting mixture was filtered using a glass filter GF/C (manufactured by Whatman) treated with 1% polyethyleneimine. After the glass filter was washed with the assay buffer containing 0.2% bovine serum albumin, the radioactivity on the glass filter was measured using a liquid scintillation counter (TRI-CARB 2700TR, manufactured by Packard). The binding amount in the presence of 10 μmol/L […] (manufactured by Tocris) ((R)-(+)-[2,3-dihydro-5-methyl-3-(4-morpholinylmethyl)pyrrolo[1,2,3-de]-1,4-benzoxazin-6-yl]-1-naphthalenylmethanone) was considered to be a non-specific binding amount, and a difference between the total binding amount and the non-specific binding amount was considered to be a specific binding amount. The 50% inhibitory concentration (IC50 value) of the test compound against the specific binding was obtained, and the Ki value of the test substance was calculated from the 50% inhibitory concentration and the Kd value of the [^3H]CP55940 binding.

In the next assay the target is T2, human CB2 receptor (Homo sapiens, UniProt P34972).
T2 construct: expressed in transfected cells
The experiment in a line: GTPγS binding experiment via human CB2 receptor (membrane fraction of CHO-K1 cells). The note with it: for Emax: read-out: Emax value (maximum effect of CP55940 as 100%). It counts as biochemical. The protocol: A test was carried out according to the method of Hillard et al. [The Journal of Pharmacology and Experimental Therapeutics, vol. 289, p. 1427 (1999)]. As for a membrane specimen, a membrane fraction was prepared from CHO-K1 cells in which a human CB2 receptor [Nature, vol. 365, pp. 61-65 (1993)] was stably expressed and used. The membrane specimen (final concentration: 40 μg of protein/mL) was incubated together with a test compound and [^35S]GTPγS (manufactured by PerkinElmer) (final concentration: 0.05 nmol/L) in an assay buffer (50 mmol/L Tris-HCl buffer (pH 7.4), 100 mmol/L NaCl, 1 mmol/L EDTA, 3 mmol/L MgCl2, and 0.1% bovine serum albumin) containing 20 μmol/L guanosine 5′-diphosphate (GDP) at 30° C. for 1 hour, and the resulting mixture was filtered using a glass filter GF/B (manufactured by Whatman). After the glass filter was washed with the assay buffer, the radioactivity on the glass filter was measured using a liquid scintillation counter (TRI-CARB 2700TR, manufactured by Packard). The binding amount in the presence of 10 μmol/L GTPγS was considered to be a non-specific binding amount, and a difference between the total binding amount and the non-specific binding amount was considered to be a specific binding amount. The ratio of increase in the specific binding amount in the presence of the test compound to the specific binding amount in the absence of the test compound was considered to be an agonistic activity of the test compound. The concentration of the test compound that produces 50% of the maximum effect (EC50 value) was calculated by performing a nonlinear regression analysis using the concentration-response data. The percentage of the maximum effect of the test compound (Emax value) was calculated by considering the maximum effect of CP55940 (manufactured by Tocris) measured at the same time as 100%.

Molecules are shown by their SMILES.

T2 sequence (P34972 whole entry): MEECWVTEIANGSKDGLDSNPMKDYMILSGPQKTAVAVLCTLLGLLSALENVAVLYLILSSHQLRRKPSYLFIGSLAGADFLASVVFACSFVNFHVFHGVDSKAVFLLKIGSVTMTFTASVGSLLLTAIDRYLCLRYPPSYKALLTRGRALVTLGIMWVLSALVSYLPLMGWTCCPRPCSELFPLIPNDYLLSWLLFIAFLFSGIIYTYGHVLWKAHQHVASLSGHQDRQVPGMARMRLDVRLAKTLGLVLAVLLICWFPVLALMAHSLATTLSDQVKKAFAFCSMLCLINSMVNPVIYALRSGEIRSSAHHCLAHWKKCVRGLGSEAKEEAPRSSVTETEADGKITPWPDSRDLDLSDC

Broadly, the Ki is a measure of affinity in units of concentration, obtained from inhibition or displacement. In general, EC50 refers to the concentration needed to bring the measured effect to its halfway point. The low end stands for higher potency in that assay, the high end for lower potency in that assay. The Emax is the greatest response seen or fitted, relative to the assay's reference. On to `CCCN(C)C(=O)c1cncc(-c2cn(CC3CCOCC3)c(C(C)(C)C)n2)n1` [Compound 144, 6-[2-tert-Butyl-1-(tetrahydropyran-4-ylmethyl)-1H-imidazol-4-yl]-N-methyl-N-propylpyrazine-2-carboxamide], for which the “50% pain threshold (paw withdrawal threshold)” value (from here on “50% pain threshold”) in assay [1] is “significantly increased the pain threshold”. Moreover, the Ki at CB2 receptor was below 1000 nM. At human CB2 receptor, the EC50 was below 1000 nM and the Emax is above 30%.
For `CCN(C)C(=O)c1cncc(-c2cn(CC3CCOCC3)c(C(C)(C)C)n2)n1` [Compound 146, 6-[2-tert-Butyl-1-(tetrahydropyran-4-ylmethyl)-1H-imidazol-4-yl]-N-ethyl-N-methylpyrazine-2-carboxamide], in assay [1], the “50% pain threshold” value was “significantly increased the pain threshold”. Moreover, the Ki on CB2 receptor is below 1000 nM. Further, on human CB2 receptor, the EC50 is below 1000 nM and the Emax was above 30%.
As for `CN(C)C(=O)c1cncc(-c2cn(CC3CCOCC3)c(C(C)(C)C)n2)n1` [Compound 153, 6-[2-tert-Butyl-1-(tetrahydropyran-4-ylmethyl)-1H-imidazol-4-yl]-N,N-dimethylpyrazine-2-carboxamide], in assay [1], the “50% pain threshold” value is recorded as “significantly increased the pain threshold”. The Ki on CB2 receptor was below 1000 nM. Further, on human CB2 receptor, the EC50 was below 1000 nM and the Emax was above 30%.
For the compound `CCN(C)C(=O)c1cncc(-c2cn(CC3(F)CCOCC3)c(C(C)(C)C)n2)n1` [Compound 185, 6-[2-tert-Butyl-1-(4-fluorotetrahydropyran-4-ylmethyl)-1H-imidazol-4-yl]-N-ethyl-N-methylpyrazine-2-carboxamide], the “50% pain threshold” value in assay [1] is reported as “significantly increased the pain threshold”. Moreover, the Ki at CB2 receptor is below 1000 nM. Besides, at human CB2 receptor, the EC50 was below 1000 nM and the Emax was above 30%.
For the compound `CN(C)C(=O)c1cncc(-c2cn(CC3(F)CCOCC3)c(C(C)(C)C)n2)n1` [Compound 186, 6-[2-tert-Butyl-1-(4-fluorotetrahydropyran-4-ylmethyl)-1H-imidazol-4-yl]-N,N-dimethylpyrazine-2-carboxamide], the “50% pain threshold” value in assay [1] is listed as “significantly increased the pain threshold”. The compound further had a Ki at CB2 receptor below 1000 nM. At human CB2 receptor, the EC50 is below 1000 nM and the Emax was above 30%.
As for `CN(CC(F)(F)F)C(=O)c1cc(-c2cn(CC3CCOCC3)c(C(C)(C)C)n2)on1` [Compound 204, 5-[2-tert-Butyl-1-(tetrahydropyran-4-ylmethyl)-1H-imidazol-4-yl]-N-methyl-N-(2,2,2-trifluoroethyl)isoxazole-3-carboxamide], the “50% pain threshold” value in assay [1] is listed as “significantly increased the pain threshold”. In addition, the Ki at CB2 receptor was below 1000 nM. On human CB2 receptor, the EC50 was below 1000 nM and the Emax was above 30%.
In the case of `CN(C(=O)c1cncc(-c2cn(CC3CCOCC3)c(C(C)(C)C)n2)n1)C1CC1` [Compound 205, 6-[2-tert-Butyl-1-(tetrahydropyran-4-ylmethyl)-1H-imidazol-4-yl]-N-cyclopropyl-N-methylpyrazine-2-carboxamide], the “50% pain threshold” value in assay [1] is reported as “significantly increased the pain threshold”. The compound further had a Ki at CB2 receptor below 1000 nM. Besides, at human CB2 receptor, the EC50 was below 1000 nM and the Emax was above 30%.
Turning to `CN(CC1CC1)C(=O)c1cncc(-c2cn(CC3CCOCC3)c(C(C)(C)C)n2)n1` [Compound 206, 6-[2-tert-Butyl-1-(tetrahydropyran-4-ylmethyl)-1H-imidazol-4-yl]-N-cyclopropylmethyl-N-methylpyrazine-2-carboxamide], in assay [1], the “50% pain threshold” value is given as “significantly increased the pain threshold”. Moreover, the Ki at CB2 receptor is below 1000 nM. Besides, on human CB2 receptor, the EC50 was below 1000 nM and the Emax is above 30%.
